Measured values reported in patent US20140315889A1, “HYDROXAMATE DERIVATIVES FOR HDAC INHIBITOR, AND THE PHARMACEUTICAL COMPOSITION COMPRISING THEREOF” (CHONG KUN DANG PHARMACEUTICAL CORP., priority 2011, published 2014).
pIC50: −log10 of the molar value.

Experiments:
human recombinant HDAC6 = molecular target: T1, human recombinant HDAC6 (Homo sapiens, UniProt Q9UBN7); test: HDAC enzyme activity test, HDAC6; type: biochemical; details: Table 12; for Selectivity for HDAC6, HD1/HD6: ratio HDAC1 IC50 / HDAC6 IC50; for pIC50: read-out: Inhibition ability (IC50) HDAC6
T1 construct: purchased Calibiochem Co. (so in the source) 382180
T1 sequence (Q9UBN7 1-1215): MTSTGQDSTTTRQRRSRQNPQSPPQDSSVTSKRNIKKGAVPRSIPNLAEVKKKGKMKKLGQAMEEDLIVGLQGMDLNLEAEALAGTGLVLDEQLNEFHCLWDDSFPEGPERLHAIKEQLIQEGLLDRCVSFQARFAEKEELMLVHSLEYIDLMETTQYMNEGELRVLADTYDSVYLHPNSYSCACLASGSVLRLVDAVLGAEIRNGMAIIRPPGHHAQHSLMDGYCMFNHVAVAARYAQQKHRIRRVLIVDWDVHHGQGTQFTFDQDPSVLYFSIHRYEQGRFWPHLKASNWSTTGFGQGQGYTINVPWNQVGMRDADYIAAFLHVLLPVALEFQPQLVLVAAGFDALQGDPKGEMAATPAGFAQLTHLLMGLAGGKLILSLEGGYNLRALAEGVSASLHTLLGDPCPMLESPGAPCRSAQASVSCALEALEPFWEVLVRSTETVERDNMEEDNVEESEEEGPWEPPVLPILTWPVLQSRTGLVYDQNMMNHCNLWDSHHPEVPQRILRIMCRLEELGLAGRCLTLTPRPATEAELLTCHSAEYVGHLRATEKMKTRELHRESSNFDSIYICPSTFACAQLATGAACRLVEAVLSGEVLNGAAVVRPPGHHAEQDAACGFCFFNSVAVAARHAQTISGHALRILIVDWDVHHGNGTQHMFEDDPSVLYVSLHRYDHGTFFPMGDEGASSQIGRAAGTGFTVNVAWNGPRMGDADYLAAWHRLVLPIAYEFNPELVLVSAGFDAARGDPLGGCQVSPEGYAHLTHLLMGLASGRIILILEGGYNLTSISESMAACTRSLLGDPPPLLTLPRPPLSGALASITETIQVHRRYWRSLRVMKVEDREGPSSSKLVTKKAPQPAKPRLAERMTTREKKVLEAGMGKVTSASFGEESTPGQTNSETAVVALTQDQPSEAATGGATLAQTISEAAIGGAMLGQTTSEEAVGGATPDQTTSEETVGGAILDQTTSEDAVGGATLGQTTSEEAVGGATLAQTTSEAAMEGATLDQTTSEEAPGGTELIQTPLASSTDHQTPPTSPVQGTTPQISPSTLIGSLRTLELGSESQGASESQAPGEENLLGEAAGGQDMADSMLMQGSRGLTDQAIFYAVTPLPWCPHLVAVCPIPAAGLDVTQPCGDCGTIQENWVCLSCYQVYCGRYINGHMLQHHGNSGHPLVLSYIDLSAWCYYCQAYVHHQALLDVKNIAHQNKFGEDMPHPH
Procedure: (§1) Then, 0.3 μg of enzyme and 10 μM of substrate per well were added, reacted at 30° C. for 60 minutes. Thereto, Fluor de Lys® Developer II (BML-KI176) was added and reacted for 30 minutes. […] From the data, the respective IC50 were calculated by GraphPad Prism 4.0 program.

Human recombinant HDAC1 = molecular target: T2, Human recombinant HDAC1 (Homo sapiens, UniProt Q13547); test: HDAC enzyme activity test, HDAC1; type: biochemical; details: Table 12; read-out: Inhibition ability (IC50) HDAC1
T2 construct: purchased Enzo Life Science Co. (named for the kit; assigned to the enzyme from the BML- catalogue prefix) BML-SE456
T2 sequence (Q13547 whole entry): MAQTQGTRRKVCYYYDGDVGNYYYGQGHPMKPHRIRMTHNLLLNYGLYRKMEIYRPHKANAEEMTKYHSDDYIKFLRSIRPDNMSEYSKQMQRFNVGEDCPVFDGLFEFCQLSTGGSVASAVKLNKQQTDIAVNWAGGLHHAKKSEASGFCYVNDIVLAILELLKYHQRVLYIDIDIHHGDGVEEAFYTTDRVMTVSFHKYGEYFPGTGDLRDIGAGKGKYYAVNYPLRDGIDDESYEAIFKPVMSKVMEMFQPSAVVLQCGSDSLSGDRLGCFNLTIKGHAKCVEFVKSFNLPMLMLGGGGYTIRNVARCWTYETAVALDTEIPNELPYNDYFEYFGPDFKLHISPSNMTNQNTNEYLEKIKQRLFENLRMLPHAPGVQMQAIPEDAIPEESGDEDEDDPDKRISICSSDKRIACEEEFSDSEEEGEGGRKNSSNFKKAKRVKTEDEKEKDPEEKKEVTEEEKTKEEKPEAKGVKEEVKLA
Procedure: as §1

SMILES	Selectivity for HDAC6, HD1/HD6 (human recombinant HDAC6)	pIC50 (human recombinant HDAC6)	pIC50 (Human recombinant HDAC1)
O=C(NO)c1ccc(Cn2c3c(c4ccccc42)C(=O)C(CN2CCCC2)CC3)cc1 (stereo not drawn) [Compound 88, N-hydroxy-4-((4-oxo-3-(pyrrolidin-1-ylmethyl)-1,2,3,4-tetrahydrocarbazol-9-yl)methyl)benzamide]	358.7	7.96	5.40
O=C(NO)c1ccc(Cn2c3c(c4ccccc42)C(=O)CCC3)cc1 [Compound 99, N-hydroxy-4-((4-oxo-1,2,3,4-tetrahydrocarbazol-9-yl)methyl)benzamide]	163.9	7.79	5.57
Cc1nn(Cc2ccc(C(=O)NO)cc2)c2c1C(=O)CC(C)(C)C2 [Compound 101, N-hydroxy-4-((3,6,6-trimethyl-4-oxo-4,5,6,7-tetrahydroindazol-1-yl)methyl)benzamide]	135.1	7.91	5.78
CC1CN(CC2CCc3c(c4ccccc4n3Cc3ccc(C(=O)NO)cc3)C2=O)CC(C)O1 (stereo not drawn) [Compound 110, 4-((3-((2,6-dimethylmorpholino)methyl)-4-oxo-1,2,3,4-tetrahydrocarbazol-9-yl)methyl)-N-hydroxybenzamide]	80	7.95	6.05
CN1CCN(CC2CCc3c(c4ccccc4n3Cc3ccc(C(=O)NO)cc3)C2=O)CC1 (stereo not drawn) [Compound 111, N-hydroxy-4-((3-((4-methylpiperazin-1-yl)methyl)-4-oxo-1,2,3,4-tetrahydrocarbazol-9-yl)methyl)benzamide]	338.2	7.91	5.38
CCN1CCN(CC2CCc3c(c4ccccc4n3Cc3ccc(C(=O)NO)cc3)C2=O)CC1 (stereo not drawn) [Compound 112, 4-((3-((4-ethylpiperazin-1-yl)methyl)-4-oxo-1,2,3,4-tetrahydrocarbazol-9-yl)methyl)-N-hydroxy benzamide]	310.6	7.83	5.34
CC(C)N1CCN(CC2CCc3c(c4ccccc4n3Cc3ccc(C(=O)NO)cc3)C2=O)CC1 (stereo not drawn) [Compound 113, N-hydroxy-4-((3-((4-isopropylpiperazin-1-yl)methyl)-4-oxo-1,2,3,4-tetrahydrocarbazol-9-yl)methyl)benzamide]	287.1	8.07	5.61
COCCN1CCN(CC2CCc3c(c4ccccc4n3Cc3ccc(C(=O)NO)cc3)C2=O)CC1 (stereo not drawn) [Compound 114]	327.1	7.75	5.24
O=C(NO)c1ccc(Cn2c3c(c4ccccc42)C(=O)C(CN2CC(F)(F)C2)CC3)cc1 (stereo not drawn) [Compound 121, 4-((3-((3,3-difluoroazetidin-1-yl)methyl)-4-oxo-1,2,3,4-tetrahydrocarbazol-9-yl)methyl)-N-hydroxybenzamide]	437.3	8.07	5.43
CC1(C)Cc2c(c3ccccc3n2Cc2ccc(C(=O)NO)cc2)C(=O)C1CN1CCOCC1 (stereo not drawn) [Compound 122, 4-((2,2-dimethyl-3-(morpholinomethyl)-4-oxo-1,2,3,4-tetrahydrocarbazol-9-yl)methyl)-N-hydroxybenzamide]	153	7.39	5.20
O=C(NO)c1ccc(Cn2c3c(c4ccccc42)C(=O)C(CN2CCC(F)(F)C2)CC3)cc1 (stereo not drawn) [Compound 123, 4-((3-((3,3-difluoropyrrolidin-1-yl)methyl)-4-oxo-1,2,3,4-tetrahydrocarbazol-9-yl)methyl)-N-hydroxybenzamide]	539.8	8.18	5.45
Cc1nccn1CC1C(=O)c2c(n(Cc3ccc(C(=O)NO)cc3)c3ccccc23)CC1(C)C (stereo not drawn) [Compound 126, 4-((2,2-dimethyl-3-((2-methyl-1H-imidazol-1-yl)methyl)-4-oxo-1,2,3,4-tetrahydrocarbazol-9-yl)methyl)-N-hydroxybenzamide]	163.3	7.45	5.24
O=C(NO)c1ccc(Cn2c3c(c4ccccc42)C(=O)C(CN2CCN(c4ccc(F)cc4)CC2)CC3)cc1 (stereo not drawn) [Compound 127, 4-((3-((4-(4-fluorophenyl)piperazin-1-yl)methyl)-4-oxo-1,2,3,4-tetrahydrocarbazol-9-yl)methyl)-N-hydroxybenzamide]	622.7	8.07	5.28
Cc1ccc(N2CCN(CC3CCc4c(c5ccccc5n4Cc4ccc(C(=O)NO)cc4)C3=O)CC2)cc1C (stereo not drawn) [Compound 128, 4-((3-((4-(3,4-dimethylphenyl)piperazin-1-yl)methyl)-4-oxo-1,2,3,4-tetrahydrocarbazol-9-yl)methyl)-N-hydroxybenzamide]	198.6	7.39	5.09
CN(C)CC1C(=O)c2c(n(Cc3ccc(C(=O)NO)cc3)c3ccccc23)CC1(C)C (stereo not drawn) [Compound 129, 4-((3-((dimethylamino)methyl)-2,2-dimethyl-4-oxo-1,2,3,4-tetrahydrocarbazol-9-yl)methyl)-N-hydroxybenzamide]	642.7	8.18	5.37
CS(=O)(=O)N1CCN(CC2CCc3c(c4ccccc4n3Cc3ccc(C(=O)NO)cc3)C2=O)CC1 (stereo not drawn) [Compound 130, N-hydroxy-4-((3-((4-(methylsulfonyl)piperazin-1-yl)methyl)-4-oxo-1,2,3,4-tetrahydrocarbazol-9-yl)methyl)benzamide]	564.9	8.33	5.58
CC1(C)CCc2c(c3ccccc3n2Cc2ccc(C(=O)NO)cc2)C1=O [Compound 131, 4-((3,3-dimethyl-4-oxo-1,2,3,4-tetrahydrocarbazol-9-yl)methyl)-N-hydroxybenzamide]	296.6	8.04	5.57
Cc1cn(Cc2ccc(C(=O)NO)cc2)c2c1C(=O)CC(C)(C)C2 [Compound 136, N-hydroxy-4-((3,6,6-trimethyl-4-oxo-4,5,6,7-tetrahydro-1H-indol-1-yl)methyl)benzamide]	380.3	8.07	5.49
CC(C)(C)OC(=O)N1CCN(CC2CCc3c(c4ccccc4n3Cc3ccc(C(=O)NO)cc3)C2=O)CC1 (stereo not drawn) [Compound 140, tert-butyl 4-((9-(4-(hydroxycarbamoyl)benzyl)-4-oxo-2,3,4,9-tetrahydro-1H-carbazol-3-yl)methyl)piperazine-1-carboxylate]	325.2	7.74	5.23
O=C(NO)c1ccc(Cn2c3c(c4cc(F)ccc42)C(=O)C(CN2CCOCC2)CC3)cc1 (stereo not drawn) [Compound 141, 4-((6-fluoro-3-(morpholinomethyl)-4-oxo-1,2,3,4-tetrahydrocarbazol-9-yl)methyl)-N-hydroxybenzamide]	850.7	8.31	5.38
CC(C)(C)OC(=O)N1CCN(CC2CCc3c(c4cc(F)ccc4n3Cc3ccc(C(=O)NO)cc3)C2=O)CC1 (stereo not drawn) [Compound 144, tert-butyl 4-((6-fluoro-9-(4-(hydroxycarbamoyl)benzyl)-4-oxo-2,3,4,9-tetrahydro-1H-carbazol-3-yl)methyl)piperazin-1-carboxylate]	310.9	7.57	5.08
O=C(NO)c1ccc(Cn2c3c(c4cc(F)ccc42)C(=O)C(CN2CC(F)(F)C2)CC3)cc1 (stereo not drawn) [Compound 145, 4-((3-((3,3-difluoroazetidin-1-yl)methyl)-6-fluoro-4-oxo-1,2,3,4-tetrahydrocarbazol-9-yl)methyl)-N-hydroxybenzamide]	925.1	8.11	5.14
